The source made the active and inactive calls. The rule behind the calls is not given here.
Columns and labels:
[1] = tested on: Plasmodium berghei; assay: Antimalarial activity against Plasmodium berghei infected in mouse assessed as cure at 40 mg/kg measured at 60 days post-infection; format: functional, organism-based; parameters: dose 40 mg/kg
[2] = tested on: Plasmodium berghei; assay: Antimalarial activity against Plasmodium berghei infected in mouse assessed as cure at 80 mg/kg measured at 60 days post-infection; format: functional, organism-based; parameters: dose 80 mg/kg
[3] = tested on: Plasmodium berghei; assay: Antimalarial activity against Plasmodium berghei infected in mouse assessed as cure at 320 mg/kg measured at 60 days post-infection; format: functional, organism-based; parameters: dose 320 mg/kg
[4] = tested on: Plasmodium berghei; assay: Antimalarial activity against Plasmodium berghei infected in mouse assessed as cure at 640 mg/kg measured at 60 days post-infection; format: functional, organism-based; parameters: dose 640 mg/kg
[5] = tested on: Plasmodium berghei; assay: Antimalarial activity against Plasmodium berghei infected in mouse assessed as survival time at 5 mg/kg (reference value: 6.1 days); format: functional
[6] = tested on: Plasmodium berghei; assay: Antimalarial activity against Plasmodium berghei infected in mouse assessed as cure at 160 mg/kg measured at 60 days post-infection; format: functional, organism-based; parameters: dose 160 mg/kg
[7] = tested on: Plasmodium cynomolgi; assay: Antimalarial activity against Plasmodium cynomolgi infected in rhesus monkey assessed as curative activity at 0.316 mg/kg administered daily for 7 days; format: functional, organism-based; parameters: dose 0.316 mg/kg
[8] = tested on: Plasmodium cynomolgi; assay: Antimalarial activity against Plasmodium cynomolgi infected in rhesus monkey assessed as curative activity at 0.1 mg/kg administered daily for 7 days; format: functional, organism-based; parameters: dose 0.1 mg/kg
[9] = tested on: Plasmodium cynomolgi; assay: Antimalarial activity against Plasmodium cynomolgi infected in rhesus monkey assessed as curative activity at 1 mg/kg administered daily for 7 days; format: functional, organism-based; parameters: dose 1 mg/kg
[10] = tested on: Plasmodium berghei; assay: Antimalarial activity against Plasmodium berghei infected in mouse assessed as survival time at 20 mg/kg (reference value: 6.1 days); format: functional
[11] = tested on: Plasmodium berghei; assay: Antimalarial activity against Plasmodium berghei infected in mouse assessed as cure at 10 mg/kg measured at 60 days post-infection; format: functional, organism-based; parameters: dose 10 mg/kg
[12] = tested on: Mus musculus; assay: Toxicity in mouse infected with Plasmodium berghei at 640 mg/kg; format: organism-based; parameters: dose 640 mg/kg; details: in vivo
[13] = tested on: Mus musculus; assay: Toxicity in mouse infected with Plasmodium berghei at 320 mg/kg; format: organism-based; parameters: dose 320 mg/kg; details: in vivo
[14] = tested on: Plasmodium berghei; assay: Antimalarial activity against Plasmodium berghei infected in mouse assessed as cure at 5 mg/kg measured at 60 days post-infection; format: functional, organism-based; parameters: dose 5 mg/kg
[15] = tested on: Plasmodium berghei; assay: Antimalarial activity against Plasmodium berghei infected in mouse assessed as cure at 20 mg/kg measured at 60 days post-infection; format: functional, organism-based; parameters: dose 20 mg/kg
[16] = tested on: Mus musculus; assay: Toxicity in mouse infected with Plasmodium berghei at 160 mg/kg; format: organism-based; parameters: dose 160 mg/kg; details: in vivo

SMILES	Activity [1]	Activity [2]	Activity [3]	Activity [4]	MST [5] [days]	Activity [6]	Activity [7]	Activity [8]	Activity [9]	Activity [11]	other results
COc1cc(NC(C)CCCN)c2nccc(C)c2c1OCCCCCCCCc1ccccc1.O=C(O)/C=C/C(=O)O (configuration not stated)	Active	Active	Active	Active	5.7	Active	–	–	–	–	–
COc1cc(NC(C)CCCN)c2nccc(C)c2c1OCCCCCCc1ccccc1.O=C(O)/C=C/C(=O)O (configuration not stated)	–	–	–	–	5.9	–	Active	inactive	Active	–	–
COc1cc(NC(C)CCCN)c2nccc(C)c2c1OCCCCCCCCCc1ccccc1.O=C(O)/C=C/C(=O)O (configuration not stated)	–	–	Active	Active	–	Active	–	–	–	–	MST [10]: 8.5 days
CCCCCOc1c(OC)cc(NC(C)CCCN)c2nccc(C)c12 (configuration not stated)	–	–	–	–	–	–	–	–	Active	Active	Activity [12]: Toxic; Activity [13]: Toxic; Activity [14]: Active
COc1cc(NC(C)CCCN)c2nccc(C)c2c1OCCCCCCCc1ccccc1 (configuration not stated)	Active	Active	Active	Active	–	Active	inactive	inactive	Active	Active	Activity [15]: Active
COc1cc(NC(C)CCCN)c2nccc(C)c2c1OCCCCCc1ccco1.O=C(O)/C=C/C(=O)O (configuration not stated)	Active	Active	–	–	7.7	Active	–	–	–	–	–
COc1cc(NC(C)CCCN)c2nccc(C)c2c1OCCCCc1ccccc1.O=C(O)/C=C/C(=O)O (configuration not stated)	–	Active	–	–	7.6	–	–	inactive	Active	–	–
COc1cc(NC(C)CCCN)c2nccc(C)c2c1OCCCc1ccccc1.O=C(O)/C=C/C(=O)O (configuration not stated)	–	–	–	–	–	–	–	–	Active	Active	Activity [16]: Toxic; Activity [12]: Toxic; Activity [13]: Toxic
COc1cc(NC(C)CCCN)c2nccc(C)c2c1OCCCCCc1cccs1.O=C(O)/C=C/C(=O)O (configuration not stated)	Active	Active	–	–	6.6	–	–	–	–	–	Activity [15]: Active
COc1cc(NC(C)CCCN)c2nccc(C)c2c1OCCCCCc1ccccc1.O=C(O)/C=C/C(=O)O (configuration not stated)	Active	Active	–	–	7.9	Active	Active	–	Active	–	–
